Assay results from patent US8076315B2, “Pharmacological treatments for sleep disorders (apnoe) with prostanoid receptor antagonists” (The Board of Trustees of the University of Illinois, priority 2005, dated 2011).

What was measured:
[1] = test system: spontaneous sleep apnea in the rat; experiment: spontaneous sleep apnea model in the rat (plethysmography with EEG/EMG recording); type: in vivo; conditions: for efficacy against sleep apnea (rate of apneas per hour of NREM and REM sleep, 6 hours of polygraphic recording): systemic injection 15 min before recording, Example 2, described as results that can be obtained
Description: Adult, male Sprague-Dawley rats (obtained from Sasco-King, Wilmington, Mass.; usually 8 per test group; average weight=300 g) are maintained on a 12-hour light (08:00-20:00 hour)/12-hour dark (20:00-08:00 hour) cycle for one week, housed in individual cages and given ad libitum access to food and water. Following the one week of acclimatization, animals are subjected to the following surgical procedures.
Acclimatized animals are anesthetized using a mixture of ketamine […] and xylazine (5 mg/kg) at a volume of 1 ml/kg body weight for the implantation of cortical electrodes for electroencephalogram (EEG) recording and neck muscle electrodes for electromyogram (EMG) recording. The surface of the skull is exposed surgically and cleaned with a 20% solution of hydrogen peroxide followed by a solution of 95% isopropyl alcohol. Next, a dental preparation of sodium fluoride (Flura-GEL®, Saslow Dental, Mt. Prospect, Ill.) is applied to harden the skull above the parietal cortex and allowed to remain in place for 5 minutes. The fluoride mixture is then removed from the skull above the parietal cortex. The EEG electrodes consisting of four stainless steel machine screws, having leads attached thereto, are threaded into the skull to rest on the dura over the parietal cortex. A thin layer of Justi® resin cement (Saslow Dental, Mt. Prospect, Ill.) is applied to cover the screw heads (of screws implanted in the skull) and surrounding skull to further promote the adhesion of the implant. EMG electrodes consisting of two ball-shaped wires are inserted into the bilateral neck musculature. All leads (i.e., EEG and EMG leads) are soldered to a miniature connector (39F1401, Newark Electronics, Schaumburg, Ill.). Lastly, the entire assembly is fixed to the skull with dental cement.
After surgery, all animals are allowed to recover for one week before being recorded for sleep and breathing.
Physiological parameters (see below) from each animal prepared as set forth in Example 1 are recorded on 2 occasions in random order, with recordings for an individual animal separated by at least 3 days. Fifteen minutes prior to each recording an animal receives a systemic injection (1 ml/kg intraperitoneal bolus) of either saline (control) or an active dose of a drug treatment.
Respiration is recorded by placing each animal, unrestrained, inside a single chamber plethysmograph (PLYUN1R/U; Buxco Electronics, Sharon, Conn.; dimension 6 in. ×10 in.×6 in.) ventilated with a bias flow of fresh room air at a rate of 2 L/min. A cable plugged onto the animal's connector and passed through a sealed port is used to collect the bioelectrical activity from the head implant.
Sleep and waking states are assessed using software developed by Benington et al. (1994, Sleep 17: 28-36) to analyze the biparietal EEG and nuchal EMG signals on 10-second epochs. This software discriminates wakefulness (W) as a high frequency low amplitude EEG with a concomitant high EMG tone, NREM sleep by increased spindle and […] together with decreased EMG tone, and REM sleep by a low ratio of a delta to theta activity and an absence of EMG tone. Sleep efficiency is measured as the percentage of total recorded epochs staged as NREM or REM sleep.
An accepted physiological animal model of spontaneous sleep apnea in the rat (see Radulovacki & Carley, 2002, in SLEEP-RELATED BREATHING DISORDERS: EXPERIMENTAL MODELS AND THERAPEUTIC POTENTIAL, (Carley & Radulovacki, eds.), Marcel Dekker: New York, pp. 3-16) is used to assess the effects of test drugs. More specifically, sleep apneas, defined as cessation of respiratory effort for at least 2.5 seconds, are scored for each recording session and associated with the stage of sleep in which they occur (i.e., NREM or REM sleep). The duration requirement of 2.5 seconds represents at least 2 “missed” breaths, which is therefore analogous to a 10 second apnea duration requirement in humans, which also reflects 2-3 missed breaths. […]

[2] = test system: central apneas during all sleep stages; conditions: rats with frequent central apneas; cited from earlier work
[3] = test system: sleep apnea in OSAS patients; conditions: cited from earlier work

CC(=O)NNC(=O)N1Cc2ccccc2Oc2ccc(Cl)cc21 [SC19220]
animals in which apnea was eliminated throughout the 6-hour recording ([1]; intraperitoneal injection, 0.005 mg/kg, 4 test animals): 2 of 4 | average reduction of apnea frequency with respect to placebo (DMSO) control injection ([1]; intraperitoneal injection, 0.005 mg/kg, 4 test animals, 6-hour recording): 64%

O=C(O)CCn1c2c(c3ccccc31)C[C@H](NS(=O)(=O)c1ccc(F)cc1)CC2 [ramatroban]
efficacy against sleep apnea (rate of apneas per hour of NREM and REM sleep, 6 hours of polygraphic recording) [1]: dose-dependent efficacy

Cc1nccn1CC1CCc2c(c3ccccc3n2C)C1=O (stereo not drawn) [ondansetron]
apnea frequency [2]: reduce apnea frequency | effect on sleep apnea ([3]; another study of OSAS patients): failed to demonstrate any effect

CN1CCN2c3ncccc3Cc3ccccc3C2C1 (stereo not drawn) [mirtazapine]
apnea frequency [2]: reduce apnea frequency | reduction of apnea frequency ([3]; one study of OSAS patients): 50%

CCCCCNC(=O)c1coc([C@H]2[C@@H](Cc3ccccc3CCC(=O)O)[C@@H]3CC[C@H]2O3)n1 [Ifetroban]
efficacy against sleep apnea (rate of apneas per hour of NREM and REM sleep, 6 hours of polygraphic recording) [1]: dose-dependent efficacy

polyphloretin phosphate
efficacy against sleep apnea (rate of apneas per hour of NREM and REM sleep, 6 hours of polygraphic recording) [1]: dose-dependent efficacy

COc1cc(N)c(Cl)cc1C(=O)N[C@H]1CN2CCC1CC2 [R-zacopride]
apnea frequency [2]: reduce apnea frequency

O=C1CC2(CCCC2)CC(=O)N1CCCCN1CCN(c2ncccn2)CC1 [Buspirone]
patients with reduced apnea index ([3]; patients with sleep apnea syndrome (Mendelson et al., 1991)): 4 of 5

diphloretin phosphate
efficacy against sleep apnea (rate of apneas per hour of NREM and REM sleep, 6 hours of polygraphic recording) [1]: dose-dependent efficacy
